Data reported in patent US20220402917A1, “COMPOUND AS SMALL MOLECULE INHIBITOR PD-1/PD-L1 AND APPLICATION THEREOF” (MEDSHINE DISCOVERY INC., priority 2019, published 2022).

Experiments:
[1] = molecular target: T1, PD-L1 in MDA-MR-231 cells (Homo sapiens, UniProt Q9NZQ7); test: Effect on expression level of PD-L1 in MDA-MR-231 cells (FACS); type: cell-based; settings: 24 hours incubation, FACS detection of cell surface PD-L1
T1 construct: endogenous in cells; host or cells: MDA-MB-231
In short: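 MDA-MB-231 cells (1×10^5/well) were incubated 24 h at 37 °C with 5-fold serially diluted compounds. Cells were detached with 10 mM EDTA, then stained with anti-human PD-L1 and LIVE/DEAD dye (4 °C, 30 min) and fixed. Surface PD-L1 was measured by flow cytometry.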

[2] = Pharmacokinetic test in C57BL/6 mice; type: in vivo; settings: mouse, plasma, male C57BL/6 mice
Experimental: Experimental Example 4: Pharmacokinetic Test
Experimental purpose: To study the pharmacokinetics of compounds in C57BL/6 mice.
Experimental materials: C57BL/6 mice (male, 8 weeks old, body weight 25 g-30 g)
Experimental operation: The pharmacokinetic characteristics of rodents after intravenous (IV) and oral (PO) administration of compounds were tested in standard protocols. In the experiment, the candidate compounds were formulated into 1 mg/mL clear solutions, and administered to mice via a single intravenous injection and oral administration. The vehicle of intravenous and oral administration was 5% DMSO/5% polyethylene glycol 15-hydroxystearate (Solutol)/90% aqueous solution. Four male C57BL/6 mice were used in the experiment, wherein two mice were administered intravenously at a dose of 1 mg/kg, and the plasma samples were collected 0.0833, 0.25, 0.5, 1, 2, 4, 6, 8 and 24 h after administration, the other two mice were given oral gavage at a dose of 10 mg/kg, and the plasma samples were collected 0.25, 0.5, 1, 2, 4, 6, 8, and 24 h after administration. Whole blood samples within 24 hours were collected, centrifuged at 3000 g for 15 minutes, and the supernatant was separated to obtain plasma samples. Acetonitrile solution containing internal standard was added thereto to precipitate proteins, the mixture was thoroughly mixed and centrifuged to obtain the supernatant for injection. The plasma concentration was quantified by LC-MS/MS analysis method, and the pharmacokinetic parameters were calculated, such as peak concentration (Cmax), clearance (CL), half-life (T1/2), […] (Vdss), area under the drug-time curve (AUC0-last), bioavailability (F) and so on.

T1 sequence (Q9NZQ7 19-290): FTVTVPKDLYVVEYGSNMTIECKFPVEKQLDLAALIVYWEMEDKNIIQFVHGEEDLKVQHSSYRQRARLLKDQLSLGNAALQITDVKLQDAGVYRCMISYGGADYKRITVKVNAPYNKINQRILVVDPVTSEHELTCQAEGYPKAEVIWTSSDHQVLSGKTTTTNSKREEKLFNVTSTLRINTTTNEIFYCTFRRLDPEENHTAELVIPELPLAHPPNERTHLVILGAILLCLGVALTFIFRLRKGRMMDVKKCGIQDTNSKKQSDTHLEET

COc1nc(-c2cccc(-c3cccc(NC(=O)c4cc(C)c5c(n4)CN(CCO)CC5)c3Cl)c2Cl)cnc1CN1CC(O)C1 [Compound 21]
IC50 [1]: 5.73 nM | bioavailability ([2]; PO 10 mg/kg vs IV 1 mg/kg, read-out: Bioavailability F): 34.9% | Cmax ([2]; IV 1 mg/kg, PO 10 mg/kg (route not given for Cmax), read-out: Peak concentration Cmax): 117 nM | clearance ([2]; IV 1 mg/kg, read-out: Clearance CL): 98.4 mL/min/kg | half-life ([2]; IV 1 mg/kg, read-out: Half-life T1/2 (IV) (converted)): 11.6 h | Vd ([2]; IV 1 mg/kg, read-out: Tissue distribution Vdss): 65.6 L/kg | AUC(0-t) ([2]; PO 10 mg/kg, read-out: Area under the drug-time curve AUC0-last PO): 0.796 µM·h
